Patent US20190345191A1, “CYCLIC DINUCLEOTIDE ANALOGS FOR TREATING CONDITIONS ASSOCIATED WITH STING (STIMULATOR OF INTERFERON GENES) ACTIVITY” (Innate Tumor Immunity, Inc., priority 2016, published 2019)

Tested on: STING pathway
Experiment: STING pathway activation in THP1-Dual cells, NFκB pathway SEAP reporter
Format: cell-based
Conditions: Homo sapiens, NFκB pathway reporter (secreted embryonic alkaline phosphatase, QUANTI-Blue, 620 nm), 24-hour or 48-hour assay duration not specified
Experimental: STING pathway activation by the compounds described herein was measured using THP1-Dual™ cells. These cells are THP1 monocytes that have been modified to be reporters for the NFκB pathway (by inducing secreted embryonic alkaline phosphatase (SEAP) expression) and the IRF pathway (by inducing secreted luciferase (LUCIA)). Both of these pathways are activated by STING agonists in these cells.
THP1 Dualtm cells (obtained from Invivogen) are maintained in a cell growth medium that includes Roswell Park Memorial Institute medium (RPMI), 10% fetal calf serum (FCS), 100 U/ml Pen/Strep, 2 mM L-glut, 10 mM Hepes, and 1 mM sodium pyruvate. Prior to the assay, the cells were transferred to an assay medium that includes RPMI, 5% FCS, 100 U/ml Pen/Strep, 2 mM L-glut, 10 mM Hepes, and 1 mM sodium pyruvate. Cells were then counted and evaluated for viability by trypan blue exclusion assay.
The compounds of the present invention can be assayed using, for example, the following procedure. Compounds were dissolved in water or DMSO depending, for example, on their solubility in water or DMSO. […]
To carry out the secreted embryonic alkaline phosphatase reporter, 10 μL of cell supernatant was mixed with 90 μL of QUANTI-Blue in a flat-bottom 384 well plate. […] SEAP activity was measured using a spectrophotometer set at 620 nm. […] Luminescence of the wells was then measured.

Nc1ncnc2c1ncn2[C@@H]1O[C@@H]2CNC(=O)N[C@H]3[C@@H](O)[C@H](n4cnc5c(N)ncnc54)O[C@@H]3CNC(=O)N[C@H]2[C@H]1O [Compound 31, (2R,3R,3aS,7aR,9R,10R,10aS,14aR)-2,9-bis(6-amino-9H-purin-9-yl)-3,10-dihydroxydodecahydrodifuro[3,2-d:3′,2′-j][1,3,7,9]tetraazacyclododecine-5, 12(4H,6H)-dione]
IC50: 22.2 µM

Nc1ncnc2c1ncn2[C@@H]1O[C@@H]2CNC(=S)N[C@H]3[C@@H](O)[C@H](n4cnc5c(N)ncnc54)O[C@@H]3CNC(=S)N[C@H]2[C@H]1O [Compound 30, (2R,3R,3aS,7aR,9R,10R,10aS,14aR)-2,9-bis(6-amino-9H-purin-9-yl)-3,10-dihydroxydodecahydrodifuro[3,2-d:3′,2′-j][,3,7,9]tetraazacyclododecine-5,12(4H,6H)-dithione]
IC50: 25.4 µM
